The values that follow come from ChEMBL document CHEMBL1133400, “Synthesis and pharmacology of a novel pyrrolo[2,1,5-cd] indolizine (NNC 45-0095), a high affinity non-steroidal agonist for the estrogen receptor” (Bioorg Med Chem Lett, 2000).

The structures appear in SMILES notation. pEC50: −log10 of the molar value.

Assay [1] relates to Ishikawa. Nature of the assay: Stimulation of endometrial activity in Ishikawa human endometrial adenocarcinoma cells. The format is functional, cell-based.
Assay [2] relates to Ishikawa. Nature of the assay: Percentp stimulation of alkaline phosphate activity in Ishikawa human endometrial adenocarcinoma cells relative to Moxestrol. The format is functional.
For assay [3], the target named is Estrogen receptor (Mus musculus, UniProt O08537+P19785). Description: Uterotrophic activity in immature mouse. The format is functional, tissue-based, Uterus.
The target of assay [4] is Estrogen receptor (Mus musculus) (UniProt O08537+P19785). Nature of the assay: Percent maximal relative agonism for uterotrophic activity in immature mouse model. The format is functional.
For assay [5], the target named is Estrogen receptor (Homo sapiens, UniProt Q92731+P03372). Nature of the assay: Binding affinity for estrogen receptor of rabbit uterine […] muscle tissue. The format is protein assay, Oryctolagus cuniculus. As to conditions: target entry is the homologue from another species.

In general, pEC50 refers to the negative decadic logarithm of the EC50, by convention in mol/L. The low end stands for a high EC50, the high end for a low EC50. The Emax is the maximal effect, on the per cent scale that the assay sets. One may read the IC50 as the midpoint of a concentration-inhibition curve. High values mean weaker potency, low ones greater potency.

Estrogen receptor (Mus musculus), sequence (O08537 whole entry, looked up): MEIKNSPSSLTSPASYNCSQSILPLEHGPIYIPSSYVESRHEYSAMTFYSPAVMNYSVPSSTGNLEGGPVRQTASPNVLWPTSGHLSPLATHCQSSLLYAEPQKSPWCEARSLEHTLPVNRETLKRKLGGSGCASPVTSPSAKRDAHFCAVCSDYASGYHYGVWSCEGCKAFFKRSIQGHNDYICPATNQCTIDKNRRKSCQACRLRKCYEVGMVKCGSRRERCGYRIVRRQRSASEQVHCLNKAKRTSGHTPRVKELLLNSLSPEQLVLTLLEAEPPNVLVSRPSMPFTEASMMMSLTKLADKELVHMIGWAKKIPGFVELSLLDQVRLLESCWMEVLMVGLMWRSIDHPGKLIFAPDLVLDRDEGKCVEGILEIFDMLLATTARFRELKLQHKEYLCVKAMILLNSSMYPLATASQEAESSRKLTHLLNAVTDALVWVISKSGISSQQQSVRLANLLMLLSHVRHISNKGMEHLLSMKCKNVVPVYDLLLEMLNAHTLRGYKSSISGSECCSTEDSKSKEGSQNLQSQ
Estrogen receptor (Mus musculus), sequence (P19785 whole entry, looked up): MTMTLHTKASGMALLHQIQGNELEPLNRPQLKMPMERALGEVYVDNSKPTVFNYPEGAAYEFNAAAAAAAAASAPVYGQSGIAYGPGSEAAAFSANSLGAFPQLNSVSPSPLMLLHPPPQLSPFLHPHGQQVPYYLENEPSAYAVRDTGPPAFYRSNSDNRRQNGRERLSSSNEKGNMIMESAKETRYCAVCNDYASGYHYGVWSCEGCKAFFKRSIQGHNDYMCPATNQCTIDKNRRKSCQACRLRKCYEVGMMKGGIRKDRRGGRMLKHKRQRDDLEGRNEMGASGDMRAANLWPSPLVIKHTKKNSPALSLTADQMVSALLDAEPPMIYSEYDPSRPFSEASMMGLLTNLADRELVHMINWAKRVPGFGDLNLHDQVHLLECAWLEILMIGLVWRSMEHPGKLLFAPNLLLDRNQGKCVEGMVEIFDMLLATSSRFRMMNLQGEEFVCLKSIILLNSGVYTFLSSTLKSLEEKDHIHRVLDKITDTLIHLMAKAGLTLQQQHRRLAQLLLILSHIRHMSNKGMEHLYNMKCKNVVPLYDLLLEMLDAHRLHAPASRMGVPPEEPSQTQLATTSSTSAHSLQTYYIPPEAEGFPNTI

For the compound `CCc1c(-c2ccc(O)cc2)c2ccc3cccc1n32`, in assay [1], the negative-log EC50 (pEC50) was 7.89. In assay [2], this compound returned an Emax of 105%. The compound further showed an EC50 in assay [3] of 0.96 nM/g. This compound also returned an Activity in assay [4] of 76%.

In assay [1], `C#C[C@]1(O)CC[C@H]2C3CCc4cc(O)ccc4[C@H]3[C@@H](OC)C[C@@]21C` (single isomer, unassigned) [MOXESTROL] showed a pEC50 of 10.00. In assay [2], this compound gave an Emax of 100%. In assay [5], this compound had an IC50 of 2.5 nM.
